Data published in PubChem BioAssay (NCI).
Values joined by “and” are separate entries in the source; they are usually repeats but may differ in a detail not shown here. Equal values may be shown once.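 Values below derive from 48-hour exposures of cells grown in 96-well plates, with endpoints linearly interpolated between the two concentrations bracketing the appropriate inhibition level. Here, GI50 denotes the concentration required for 50% inhibition of growth. TGI: concentration producing complete growth inhibition.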

Tests used:
Experiment in all cases: NCI anticancer screen, dose series, 48 h
[1] = test system: SK-MEL-2 melanoma
[2] = test system: DU-145 prostate
[3] = test system: U251 CNS
[4] = test system: PC-3 prostate
[5] = test system: NCI/ADR-RES ovarian
[6] = test system: NCI-H226 lung
[7] = test system: SK-MEL-28 melanoma
[8] = test system: UO-31 renal
[9] = test system: SF-295 CNS
[10] = test system: M14 melanoma

Structure (SMILES): COc1ccc2c(c1)c1nc3cc(C)c(C)cc3nc1n2CCN(C)C
- GI50 [1]: 1.46 µM
- TGI [1]: 3.29 µM
- GI50 [2]: 1.06 µM
- TGI [2]: 2.37 µM
- GI50 [3]: 0.57 µM
- TGI [3]: 2.19 µM
- GI50 [4]: 1.04 µM
- TGI [4]: 2.48 µM
- GI50 [5]: 0.599 µM
- TGI [5]: 2.46 µM
- GI50 [6]: 1.01 µM
- TGI [6]: 2.97 µM
- GI50 [7]: 1.65 µM
- TGI [7]: 3.29 µM
- GI50 [8]: 0.541 µM
- TGI [8]: 2.1 µM
- GI50 [9]: 0.677 µM
- TGI [9]: 1.95 µM
- GI50 [10]: 1.1 µM
- TGI [10]: 2.57 µM

Structure (SMILES): CN[C@@H]1C[C@H]2O[C@@](C)([C@@H]1OC)n1c3ccccc3c3c4c(c5c6ccccc6n2c5c31)C(=O)N[C@H]4O
- GI50 [1]: 0.0358 µM
- TGI [1]: 0.853 µM
- GI50 [2]: 0.0448 µM
- TGI [2]: > 5.9 µM
- GI50 [3]: 0.0676 µM
- TGI [3]: 0.651 µM
- GI50 [4]: 0.0149 µM
- TGI [4]: 1.14 µM
- GI50 [5]: 0.167 µM
- TGI [5]: 0.907 µM
- GI50 [6]: 0.0269 µM
- TGI [6]: > 4.01 µM
- GI50 [7]: 0.0845 µM
- TGI [7]: 1.48 µM
- GI50 [8]: 0.0116 µM
- TGI [8]: 0.0547 µM
- GI50 [9]: 0.0268 µM
- TGI [9]: 0.26 µM
- TGI [10]: > 3.69 µM

Structure (SMILES): COc1ccc2c3c(c4ccccc4cc13)C(=O)N(CCN(C)CCN)C2=O
- GI50 [1]: 0.887 µM
- TGI [1]: 18.5 µM
- GI50 [2]: 0.0663 µM
- TGI [2]: 1.04 µM
- GI50 [3]: 0.0776 µM
- TGI [3]: 1.21 µM
- GI50 [4]: 0.338 µM
- TGI [4]: 1.93 µM
- GI50 [5]: 0.116 µM
- TGI [5]: 1.65 µM
- GI50 [6]: 0.145 µM
- TGI [6]: 0.383 µM
- GI50 [7]: 1.09 µM
- TGI [7]: 2.48 µM
- GI50 [8]: 0.065 µM
- TGI [8]: 1.35 µM
- GI50 [9]: 0.0437 µM
- TGI [9]: 1.03 µM
- GI50 [10]: 0.0599 µM
- TGI [10]: 1.32 µM

Structure (SMILES): CSc1n(Cc2ccc3ccccc3c2)c(C)c[n+]1Cc1ccc2ccccc2c1
- GI50 [1]: 0.486 µM
- TGI [1]: 1.73 µM
- GI50 [2]: 1.07 µM
- TGI [2]: 2.39 µM
- GI50 [3]: 0.422 µM
- TGI [3]: 1.65 µM
- GI50 [4]: 0.563 µM
- TGI [4]: 2.17 µM
- GI50 [5]: 12.8 µM
- TGI [5]: 31.3 µM
- GI50 [6]: 1.31 µM
- TGI [6]: 3.18 µM
- GI50 [7]: 0.854 µM
- TGI [7]: 2.19 µM
- GI50 [8]: 1.6 µM
- TGI [8]: 3.84 µM
- GI50 [9]: 1.34 µM
- TGI [9]: 2.69 µM
- GI50 [10]: 0.608 µM
- TGI [10]: 2.08 µM

Structure (SMILES): COc1ccc2c(c1)CCc1[nH]nc(-c3cc(OC)c(OC)c(OC)c3)c1-2
- GI50 [1]: < 0.01 µM
- TGI [1]: 26.8 µM
- GI50 [2]: < 0.01 µM
- TGI [2]: > 100 µM
- GI50 [3]: < 0.01 µM
- TGI [3]: 11.5 µM
- GI50 [4]: < 0.01 µM
- TGI [4]: 17.8 µM
- GI50 [5]: < 0.01 µM
- TGI [5]: < 0.01 µM
- GI50 [7]: 1.62 µM
- TGI [7]: 21.7 µM
- GI50 [8]: < 0.01 µM
- TGI [8]: 17.3 µM
- GI50 [9]: < 0.01 µM
- TGI [9]: 3.22 µM
- GI50 [10]: < 0.01 µM
- TGI [10]: 10.9 µM

Structure (SMILES): COc1ccc2nc(NCN3C(=O)c4ccccc4C3=O)sc2c1
- TGI [1]: > 100 µM
- TGI [2]: > 100 µM
- TGI [3]: > 100 µM
- TGI [4]: > 100 µM
- TGI [5]: > 100 µM
- TGI [7]: > 100 µM
- TGI [8]: > 100 µM
- TGI [9]: > 100 µM
- TGI [10]: > 100 µM

Structure (SMILES): Cc1cc([N+](=O)[O-])ccc1NS(=O)(=O)c1cc(Cl)ccc1Cl
- GI50 [1]: 2.67 µM
- TGI [1]: 8.56 µM
- GI50 [2]: 5.37 µM
- TGI [2]: > 100 µM
- GI50 [3]: 2.9 µM
- TGI [3]: 17.4 µM
- GI50 [4]: 2.73 µM
- TGI [4]: 21.1 µM
- GI50 [5]: 3.07 µM
- TGI [5]: 17.5 µM
- GI50 [6]: 2.87 µM
- TGI [6]: 14.3 µM
- GI50 [7]: 5.17 µM
- TGI [7]: > 94.6 µM
- GI50 [8]: 2.97 µM
- TGI [8]: 17 µM
- GI50 [9]: 2.46 µM
- TGI [9]: 9.26 µM
- GI50 [10]: 3.66 µM
- TGI [10]: 33.4 µM

Structure (SMILES): CC(=O)C1COC(O)C1C (stereo not drawn)
- TGI [1]: 29.1 µM
- TGI [2]: 70.8 µM
- TGI [3]: 58.2 µM
- TGI [4]: 55.5 µM
- TGI [5]: 48.6 µM
- TGI [6]: 43.4 µM
- TGI [7]: 38.6 µM
- TGI [8]: 34.9 µM
- TGI [9]: 71.9 µM
- TGI [10]: 61.1 µM

Structure (SMILES): CCOc1ccc2nc(-c3cccc(OCC(=O)NC(C)C)c3)nc(Nc3ccc(-c4cn[nH]c4)cc3)c2c1
- GI50 [1]: 1.56 µM
- TGI [1]: 5.31 µM
- GI50 [2]: 0.403 µM
- TGI [2]: 2.91 µM
- GI50 [3]: 0.431 µM
- TGI [3]: 2.15 µM
- GI50 [4]: 0.348 µM
- TGI [4]: 2 µM
- GI50 [5]: 1.92 µM
- TGI [5]: 22.9 µM
- GI50 [6]: 0.783 µM
- TGI [6]: 3.19 µM
- GI50 [7]: 1.13 µM
- TGI [7]: 3 µM
- GI50 [8]: 0.344 µM
- TGI [8]: 3.51 µM
- GI50 [9]: 0.711 µM
- TGI [9]: 3.01 µM
- GI50 [10]: 1.22 µM
- TGI [10]: 10.5 µM

Structure (SMILES): OC(C1CO1)C(O)C1CO1 (stereo not drawn)
- GI50 [1]: 137 µM
- TGI [1]: 116 µM and 345 µM
- GI50 [2]: 6.7 µM
- TGI [2]: 109 µM and 154 µM
- GI50 [3]: 7.78 µM
- TGI [3]: 114 µM and 168 µM
- GI50 [4]: 76.1 µM
- TGI [4]: 150 µM and 220 µM
- GI50 [5]: 81 µM
- TGI [5]: 123 µM and 320 µM
- GI50 [6]: 47.7 µM and 122 µM
- TGI [6]: 136 µM and 412 µM
- TGI [7]: 144 µM and 239 µM
- GI50 [8]: 37 µM
- TGI [8]: 112 µM and 199 µM
- GI50 [9]: 11.9 µM and 1.59 µM
- TGI [9]: 123 µM and 126 µM
- GI50 [10]: 28.7 µM
- TGI [10]: 94.6 µM and 165 µM

Structure (SMILES): Cc1cc(Oc2cnc(=O)[nH]c2)cs1
- TGI [1]: > 100 µM
- TGI [2]: > 100 µM
- TGI [3]: > 100 µM
- TGI [4]: > 100 µM
- TGI [5]: > 100 µM
- TGI [6]: > 100 µM
- TGI [7]: > 100 µM
- TGI [8]: > 100 µM
- TGI [9]: > 100 µM
- TGI [10]: > 100 µM

Structure (SMILES): Fc1cccc(CSc2ncnc3c2ncn3C2CCCS2)c1 (stereo not drawn)
- TGI [1]: 40.3 µM
- TGI [2]: 50.4 µM
- TGI [3]: 42.8 µM
- TGI [4]: > 100 µM
- TGI [5]: 96.7 µM
- TGI [6]: 61.4 µM
- TGI [7]: 50.8 µM
- TGI [8]: 36.2 µM
- TGI [9]: 41.1 µM
- TGI [10]: 33.7 µM

Structure (SMILES): COc1cc(F)cc([C@@H](CO)NC(=O)[C@@H](C)N2Cc3ccc(-c4nc(NC5CCOCC5)ncc4Cl)cc3C2=O)c1
- GI50 [2]: 12.3 µM
- TGI [2]: > 84.2 µM
- GI50 [3]: 8.72 µM
- TGI [3]: > 100 µM
- GI50 [4]: 9.69 µM
- TGI [4]: 98.2 µM
- GI50 [5]: 16.3 µM
- TGI [5]: 78.2 µM
- GI50 [6]: 1.3 µM
- TGI [6]: 33.2 µM
- GI50 [7]: < 0.01 µM
- TGI [7]: 0.0318 µM
- GI50 [8]: 0.406 µM
- TGI [8]: 33.6 µM
- GI50 [9]: 14.7 µM
- TGI [9]: 85.4 µM
- GI50 [10]: < 0.01 µM
- TGI [10]: 0.962 µM

Structure (SMILES): CN1CCN(C(=O)c2c(NC(=O)NS(=O)(=O)c3ccccc3)sc3c2CCCCC3)CC1
- GI50 [1]: 60.3 µM
- TGI [1]: > 100 µM
- GI50 [2]: 41 µM
- TGI [2]: > 100 µM
- GI50 [4]: 30.6 µM
- TGI [4]: > 100 µM
- GI50 [5]: 34 µM
- TGI [5]: > 100 µM
- GI50 [6]: 33.1 µM
- TGI [6]: > 100 µM
- GI50 [8]: > 100 µM
- TGI [8]: > 100 µM
- GI50 [9]: 57.2 µM
- TGI [9]: > 100 µM
- GI50 [10]: 21.6 µM
- TGI [10]: 49.8 µM

Structure (SMILES): O=C(O)C1C(=O)Oc2c(cccc2[N+](=O)[O-])C1O (stereo not drawn)
- TGI [1]: > 100 µM
- TGI [2]: > 100 µM
- TGI [3]: > 100 µM
- TGI [4]: > 100 µM
- TGI [5]: > 100 µM
- TGI [6]: > 100 µM
- TGI [7]: > 100 µM
- TGI [9]: > 100 µM
- TGI [10]: > 100 µM
